Test results from patent publication US20050165068A1, “Compounds, in particularly of urea derivatives or esters of haloacetamidobenzoic acid and use thereof for the treatment of parasitic diseases” (priority 2002, published 2005).
≈ marks a conversion by molar mass, not a printed value. Like-named read-outs stand apart in the source and are kept apart here.

Key:
[1] = test system: promastigote phase of Leishmania; conditions: 96 hours of contact, MTT marker; values of FIG. 1 not given
mouse microphages = conditions: times less on mouse microphages than on the parasite
Description: (§3) A tetrazolium salt (MTT) has been used as marker. In the case of L. mexicana, the molecules were evaluated relative to the intracellular amastigote stage (macrophages of Balb/c), the stage encountered in patients.

L. major = assay: in vivo anti-Leishmania activity, cutaneous model (L. major in Balb/c mice); conditions: MF 29 10 mg/kg intra-peritoneal once per day for 10 days, Glucantime subcutaneous, same scheme
Description: (§1) In promastigotes of L. major (2×106) or of L. infantum (10^7) in the stationary phase are inoculated respectively by the subcutaneous route in the rear right paw or by intravenous route in the caudal vein. […] Meglumine antimoniate (Glucantime-Speca™ Rhone-Poulenc, Paris, France) containing 85 mg of pentavalent antimony per ml is administered by subcutaneous route according to the same therapeutic scheme. The control group receives the solvent of MF 29 and of the saline solution at 0.9% by intra-peritoneal route.
(§2) For the cutaneous model, the efficacy of the treatment is evaluated by measuring the edema at the infected paw with the help of an electronic sliding foot (ref. 56371; Polylabo; Strasburg, France), and reported relative to the thickness of the counter-lateral paw. The mice are sacrificed […] after infection. A fragment of derma, of the spleen, of the liver and of the polyptic ganglion draining the lesion are set aside to determine the parasitic load in situ. As to the model of visceral leishmaniosis, the same protocol is carried out on the spleen and the liver. The parasitic load is expressed by the log10 of the number of parasites per gram of tissue.

L. infantum = assay: in vivo anti-Leishmania activity, visceral model (L. infantum); parameters: species or system mice; conditions: L. infantum intravenous, MF 29 10 mg/kg intra-peritoneal once per day for 10 days, Glucantime subcutaneous
Description: as §1, §2

tubuline of beef brain = test system: tubuline of beef brain
Description: The anti-microtubular activity of MF 29 is also compared to that of MF 191 and to that of the vinblastine on the assembly of the tubulines of beef brain.
Experiments carried out to measure the capacity of in vitro polymerization of the tubuline were carried out with the help of a spectrophotometer provided with a circulating bath system at 37° C. and an automatic well loader permitting simultaneous measurement of several tests. The optical density which increases with polymerization of the assembly of the tubulines of the brain according to Lebanski et al., 1973, that is induced with the promoter MAP2 is measured at 345 nm every thirty seconds.

[2] = test system: Trypanosoma cruzi Peruvian strain
Description: The in vivo anti-Trypanosoma activity of MF 29 has also been studied. Mice were infected with Trypanosoma cruzi Peruvian strain by intravenous route. Four days post-infection, the mice are treated with MF 29 by intra-peritoneal route once per day in the amount of 10 mg/Kg for 10 days. The control group receives the solvent. The effectiveness of the treatment is evaluated by measuring parasitemia and followed by mortality.

Plasmodium falciparum = test system: Plasmodium falciparum
Description: MF 29 has been evaluated in a test of inhibition of the proliferation of Plasmodium falciparum (mortal species) in an intra-erythrocytic model by measuring the incorporation of hypoxanthine.

[3] = test system: MRC5 line (normal tissue of fetal lung); conditions: times less for MRC5 line than on the parasite
Description: as §3

[4] = test system: promastigotes of L. mexicana; conditions: treatment for one hour at 5 μg/ml, sweeping electron microscope
[5] = test system: L. mexicana intracellular amastigote stage; assay: activity on the intracellular amastigote stage of L. mexicana in macrophages of Balb/c; conditions: times greater than GLUCANTIME
Description: as §3

Molecule: CCOC(=O)c1ccc(NC(=O)CCl)cc1 [GR 37, 4-chloroacetamido ethyl benzoate]
- in vitro anti-Leishmania activity (CI50 of Table 1 / FIG. 1, described in words) [1]: extraordinary activity
- cytotoxicity on mouse macrophages relative to the parasite (mouse microphages): 1000 times

Molecule: CCOC(=O)c1cccc(NC(=O)CCl)c1 [MF 29, 3-chloroacetamido ethyl benzoate]
- reduction of the hepatic parasitic load (L. major): 96%
- reduction of the polyptic ganglion parasitic load (L. major): 59%
- reduction of the spleen parasitic load (L. major): 97%
- reduction of the parasitic load in the liver (L. infantum): 25%
- reduction of the parasitic load in the spleen (L. infantum): 56%
- inhibition of polymerization of tubuline of beef brain (tubuline of beef brain; 37° C., MAP2 promoter, FIG. 4C): weak inhibitor
- inhibition of polymerization of tubuline of beef brain at doubled concentration (tubuline of beef brain; doubled concentration of the drug, FIG. 4D): significant inhibition
- mortality ([2]; 10 mg/Kg intra-peritoneal once per day for 10 days, FIG. 5): retardation in the curve of mortality
- mortality ([2]; 20 mg/kg, preliminary results): greater reduction of mortality
- reduction of the parasitic load ([2]; 8th day, versus control group, 10 mg/Kg intra-peritoneal): 70%
- parasitemia (load) ([2]; 8th day, 10 mg/Kg intra-peritoneal once per day for 10 days from four days post-infection): 200 trypomastigotes per 50 fields
- parasitemia versus control group ([2]; 10th day, 10 mg/Kg intra-peritoneal): equivalent for the two groups
- CI50 (Plasmodium falciparum; chloroquinine-sensitive strain (FCB1-Columbia)): 0.1 µg/mL (≈ 0.414 µM)
- CI50 (Plasmodium falciparum; strain (Nigerian strain) resistant to chloroquinine): 0.1 µg/mL (≈ 0.414 µM)
- in vitro anti-Leishmania activity (CI50 of Table 1 / FIG. 1, described in words) [1]: high activity
- cytotoxicity for the MRC5 line relative to that obtained on the parasite [3]: 400 times
- effect on the flagella [4]: do not seem to be disturbed
- morphological changes of the cellular body [4]: multiple pores
- activity in the amastigote form relative to GLUCANTIME [5]: 300 times

Molecule: CCOC(=O)c1ccccc1NC(=O)CCl [GR 38]
- in vitro anti-Leishmania activity (CI50 of Table 1 / FIG. 1, described in words) [1]: similar

Molecule: meglumine antimoniate [Glucantime, reference compound]
- reduction of the polyptic ganglion parasitic load (L. major): 44%
- reduction of the parasitic load in the liver (L. infantum): 30%
- reduction of the parasitic load in the spleen (L. infantum): 66%
